How the values were obtained:
[1] = two-compartment population pharmacokinetic model (Pmetrics NPAG) in critically ill ICU patients; type: in vivo, human; details: 20 ICU patients
Description: This study included data from a prospective study in 20 adult critically ill patients admitted to an ICU with suspected invasive candidiasis and treated with caspofungin ([6]). For more details about the study population, see our previous publication ([6]).
All patients received a loading dose of 70 mg on the first day of treatment. The subsequent dose was 50 mg for patients weighing ≤80 kg, 70 mg for patients weighing >80 kg, and 35 mg and 50 mg, respectively, for patients with moderate hepatic impairment (Child-Pugh score of 7 to 9) ([8]). Caspofungin was administered as a 1-h infusion.
As the steady state for caspofungin is reached on the second day after the loading dose, blood sampling was performed on day 3 (range, 2 to 4) ([22]). […] The rationale for this target is described in detail in our previous publication ([6]). The sampling was performed before the administration and 1, 2, 3, 4, 6, 8, 12, and 24 h after the start of the caspofungin infusion. Caspofungin plasma concentrations were measured using a validated liquid chromatography-tandem mass spectrometry assay ([30]).
The pharmacokinetic modeling, probability of target attainment, and visual predictive checks were performed using the nonparametric adaptive grid program (NPAG) in Pmetrics (version 1.5.2) for R (version 3.6.1) (Laboratory of Applied Pharmacokinetics and Bioinformatics, Los Angeles, CA) ([16]).
The covariate selection was performed using the PMstep command of Pmetrics. Each covariate was tested in a linear regression analysis on pharmacokinetic parameters to see if there was a significant effect on AIC value (P < 0.05). […] The covariates, tested with a forward addition method, were weight, age, gender, concomitant administration of prednisolone/hydrocortisone, dialysis, aspartate aminotransferase (AST), alanine aminotransferase (ALT), gamma-glutamyl transpeptidase (GGT), bilirubin, albumin, C-reactive protein, leukocyte count, and simplified acute physiology score (SAPS 3).
The models were analyzed and compared using individual and population observed versus predicted goodness-of-fit plots, AIC, BIC, and −2 log likelihood. The prediction error was evaluated using bias (mean weighted prediction error) and imprecision (bias-adjusted mean weighted squared prediction error) for both the individual and population models. During the population modeling assay, error (standard deviation) and environmental noise were considered. For this, we used error polynomials in the following equation: standard deviation = C0 + C1 × observed concentration. The value 0.05 was used for C0 and 0.08 for C1. Gamma multiplicative and lambda additive error models were tested to estimate residual error ([12], [31]).

[2] = cited from earlier work
Source text: This study has some limitations. […] As caspofungin is highly protein bound (∼97%), the extent of protein binding can change in ICU patients, and the measurement of unbound fractions may be useful; however, drug assessment can be difficult, as small absolute errors translate into large relative errors in highly protein-bound drugs ([26], [27]). Second, the PK/PD target for AUC is not well established in clinical trials, and the currently used targets are based on murine model ...

[3] = doses of up to 200 mg daily for an extended period of time; cited from earlier work
[4] = critically ill patients; cited from earlier work
Description: It has been shown in healthy adults that with increasing weight, both V and clearance (CL) increase ([17]). […] Other models have also included weight as a covariate and obtained similar results ([10], [18]). Furthermore, Nguyen et al. described that caspofungin exposure was influenced by albumin concentration and body weight ([19]). During our model development, albumin was also tested ...

In the case of `CC[C@H](C)C[C@H](C)CCCCCCCCC(=O)N[C@H]1C[C@@H](O)[C@@H](NCCN)NC(=O)[C@@H]2[C@@H](O)CCN2C(=O)[C@H]([C@H](O)CCN)NC(=O)[C@H]([C@H](O)[C@@H](O)c2ccc(O)cc2)NC(=O)[C@@H]2C[C@@H](O)CN2C(=O)[C@H]([C@@H](C)O)NC1=O` [caspofungin], the “Ke, elimination rate constant, mean” value ([1]; 1-h infusion, plasma LC-MS/MS, final two-compartment model) is reported as 0.09 h⁻¹, the “V0, volume of distribution, median” value ([1]; final model, V = V0 · weight/78) is reported as 7.20 L/kg and the “Ke, elimination rate constant, median” value ([1]; final two-compartment model) is reported as 0.08 h⁻¹. The “kcp, rate constant central to peripheral compartment, mean” value ([1]; final two-compartment model) was 0.44 h⁻¹, the “kcp, rate constant central to peripheral compartment, median” value ([1]; final two-compartment model) was 0.28 h⁻¹ and the “kpc, rate constant peripheral to central compartment, mean” value ([1]; final two-compartment model) was 0.46 h⁻¹. The “kpc, rate constant peripheral to central compartment, median” value ([1]; final two-compartment model) was 0.34 h⁻¹, the protein bound [2] was ~97% and the tolerability [3] was “good tolerability was observed, with no described dose-limiting toxicity”. For the same molecule, the CL [4] was 0.54 L/h and the V [4] was 7.03 L.

— article PMC7449215, “Caspofungin Weight-Based Dosing Supported by a Population Pharmacokinetic Model in Critically Ill Patients” (Antimicrobial Agents and Chemotherapy, 2020)
